Data from patent publication US20050075375A1 (priority 2003, published 2005).
Read-outs that look alike come from different tables or passages of the source.

System: monocistronic NK5.1 HCV replicon in Huh7 cells
Test: HCV replicon assay, monocistronic replicon cell line
Type: cell-based, hepatitis C virus
Conditions: Hepatitis C virus, read-out: Mono EC50 Median
Summary of the method: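 Huh7 cells carrying the monocistronic NK5.1 replicon, seeded 24 h before dosing, were exposed to six-point half-log compound series (0.6% DMSO) for 3 days at 37 °C. Replicon RNA was quantified by TaqMan RT-PCR, normalised to GAPDH and compared with DMSO controls to derive EC50.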

[1] = Huh-7, 72 h, Table 1, monocistronic replicon in Huh7 cells, 3 days incubation, HCV RNA/GAPDH RNA by TaqMan RT-PCR
[2] = Huh-7, monocistronic NK5.1 HCV replicon in Huh7 cells, median value

Structure (SMILES): Oc1ccc2ccccc2c1-c1nc(-c2ncccc2-c2ccccc2)no1 [Compound 229, 1-[3-(3-Phenyl-pyridin-2-yl)-[1,2,4]oxadiazol-5-yl]-naphthalen-2-ol]
- EC50 [1]: > 10 µM
- EC50 [2]: > 10 µM

Structure (SMILES): COc1cccc(-c2nc(-c3ncccc3-c3ccccc3)no2)c1O [Compound 230, 2-Methoxy-6-[3-(3-phenyl-pyridin-2-yl)-[1,2,4]oxadiazol-5-yl]-phenol]
- EC50 [1]: 9.8 µM
- EC50 [2]: 9.8 µM

Structure (SMILES): CN(C)c1ccc(-c2nc(-c3ncccc3-c3ccccc3)no2)c(O)c1 [Compound 231, 5-Dimethylamino-2-[3-(3-phenyl-pyridin-2-yl)-[1,2,4]oxadiazol-5-yl]-phenol]
- EC50 [1]: 2.4 µM
- EC50 [2]: 2.4 µM

Structure (SMILES): Cc1ccc(O)c(-c2nc(-c3ncccc3-c3ccccc3)no2)c1 [Compound 232, 4-Methyl-2-[3-(3-phenyl-pyridin-2-yl)-[1,2,4]oxadiazol-5-yl]-phenol]
- EC50 [1]: > 32 µM
- EC50 [2]: > 32 µM

Structure (SMILES): COc1cc(O)c(-c2nc(-c3ncccc3-c3ccccc3)no2)c(OC)c1 [Compound 233, 3,5-Dimethoxy-2-[3-(3-phenyl-pyridin-2-yl)-[1 ,2,4]oxadiazol-5-yl]-phenol]
- EC50 [1]: 2.1 µM
- EC50 [2]: 2.1 µM

Structure (SMILES): CCOc1ccc(-c2nc(-c3ncccc3-c3ccccc3)no2)c(O)c1 [Compound 234, 5-Ethoxy-2-[3-(3-phenyl-pyridin-2-yl)-[1,2,4]oxadiazol-5-yl]-phenol]
- EC50 [1]: > 19 µM
- EC50 [2]: > 19 µM

Structure (SMILES): COc1ccc(-c2nc(-c3ncccc3-c3ccccc3)no2)c(O)c1 [Compound 235, 5-Methoxy-2-[3-(3-phenyl-pyridin-2-yl)-[1,2,4]oxadiazol-5-yl]-phenol]
- EC50 [1]: 2.3 µM
- EC50 [2]: 2.3 µM

Structure (SMILES): Oc1ccc(O)c(-c2nc(-c3ncccc3-c3ccccc3)no2)c1 [Compound 236, 2-[3-(3-Phenyl-pyridin-2-yl)-[1,2,4]oxadiazol-5-yl]-benzene-1,4-diol]
- EC50 [1]: 2.2 µM
- EC50 [2]: 2.2 µM

Structure (SMILES): COc1cccc(-c2nc(-c3ccc(NC(=O)OC(C)(C)C)cn3)no2)c1O [Compound 237, {6-[5-(2-Hydroxy-3-methoxy-phenyl)-[1,2,4]oxadiazol-3-yl]-pyridin-3-yl}-carbamic acid tert-butyl ester]
- EC50 [1]: > 32 µM
- EC50 [2]: > 32 µM

Structure (SMILES): COc1ccc(-c2nc(-c3ccc(NC(=O)OC(C)(C)C)cn3)no2)c(O)c1 [Compound 238, {6-[5-(2-Hydroxy-4-methoxy-phenyl)-[1,2,4]oxadiazol-3-yl]-pyridin-3-yl}-carbamic acid tert-butyl ester]
- EC50 [1]: 1.9 µM
- EC50 [2]: 1.9 µM

Structure (SMILES): COc1ccc(O)c(-c2nc(-c3ccc(NC(=O)OC(C)(C)C)cn3)no2)c1 [Compound 239, {6-[5-(2-Hydroxy-5-methoxy-phenyl)-[1,2,4]oxadiazol-3-yl]-pyridin-3-yl}-carbamic acid tert-butyl ester]
- EC50 [1]: 2.1 µM
- EC50 [2]: 2.1 µM

Structure (SMILES): COc1cc(O)c(-c2nc(-c3ncccc3C)no2)c(OC)c1 [Compound 240, 3,5-Dimethoxy-2-[3-(3-methyl-pyridin-2-yl)-[1,2,4]oxadiazol-5-yl]-phenol]
- EC50 [1]: 0.7 µM
- EC50 [2]: 0.7 µM

Structure (SMILES): COc1cccc(O)c1-c1nc(-c2ncccc2C)no1 [Compound 241, 3-Methoxy-2-[3-(3-methyl-pyridin-2-yl)-[1,2,4]oxadiazol-5-yl]-phenol]
- EC50 [1]: > 10 µM
- EC50 [2]: > 10 µM

Structure (SMILES): COc1cc(Br)cc(-c2nc(-c3ncccc3C)no2)c1O [Compound 242, 4-Bromo-2-methoxy-6-[3-(3-methyl-pyridin-2-yl)-[1,2,4]oxadiazol-5-yl]-phenol]
- EC50 [1]: 8.3 µM
- EC50 [2]: 8.3 µM

Structure (SMILES): CCOc1ccc(-c2nc(-c3ncccc3C)no2)c(O)c1 [Compound 243, 5-Ethoxy-2-[3-(3-methyl-pyridin-2-yl)-[1,2,4]oxadiazol-5-yl]-phenol]
- EC50 [1]: 2.2 µM
- EC50 [2]: 2.2 µM

Structure (SMILES): CC(C)(C)OC(=O)Nc1ccc(-c2noc(-c3cc(Br)ccc3O)n2)nc1 [Compound 244, {6-[5-(5-Bromo-2-hydroxy-phenyl)-[1,2,4]oxadiazol-3-yl]-pyridin-3-yl}-carbamic acid tert-butyl ester]
- EC50 [1]: 7.3 µM
- EC50 [2]: 7.3 µM

Structure (SMILES): Cc1ccc(O)c(-c2nc(-c3ccc(NC(=O)OC(C)(C)C)cn3)no2)c1 [Compound 245, {6-[5-(2-Hydroxy-5-methyl-phenyl)-[1,2,4]oxadiazol-3-yl]-pyridin-3-yl}-carbamic acid tert-butyl ester]
- EC50 [1]: > 32 µM
- EC50 [2]: > 32 µM

Structure (SMILES): COc1cccnc1-c1noc(-c2cccc(OC)c2O)n1 [Compound 246, 2-Methoxy-6-[3-(3-methoxy-pyridin-2-yl)-[1,2,4]oxadiazol-5-yl]-phenol]
- EC50 [1]: 19 µM
- EC50 [2]: 19 µM

Structure (SMILES): COc1ccc(-c2nc(-c3ncccc3OC)no2)c(O)c1 [Compound 247, 5-Methoxy-2-[3-(3-methoxy-pyridin-2-yl)-[1,2,4]oxadiazol-5-yl]-phenol]
- EC50 [1]: 4.1 µM
- EC50 [2]: 4.1 µM

Structure (SMILES): COc1ccc(O)c(-c2nc(-c3ncccc3OC)no2)c1 [Compound 248, 4-Methoxy-2-[3-(3-methoxy-pyridin-2-yl)-[1,2,4]oxadiazol-5-yl]-phenol]
- EC50 [1]: 13 µM
- EC50 [2]: 13 µM

Structure (SMILES): COc1cccnc1-c1noc(-c2cc(Br)ccc2O)n1 [Compound 249, 4-Bromo-2-[3-(3-methoxy-pyridin-2-yl)-[1,2,4]oxadiazol-5-yl]-phenol]
- EC50 [1]: 0.76 µM
- EC50 [2]: 0.76 µM

Structure (SMILES): COc1cccnc1-c1noc(-c2cc(C)ccc2O)n1 [Compound 250, 2-[3-(3-Methoxy-pyridin-2-yl)-[1,2,4]oxadiazol-5-yl]-4-methyl-phenol]
- EC50 [1]: 2 µM
- EC50 [2]: 2 µM

Structure (SMILES): COc1cccc(-c2nc(-c3ccc(N)cn3)no2)c1O [Compound 251, 2-[3-(5-Amino-pyridin-2-yl)-[1,2,4]oxadiazol-5-yl]-6-methoxy-phenol]
- EC50 [2]: > 32 µM

Structure (SMILES): COc1ccc(O)c(-c2nc(-c3ccc(N)cn3)no2)c1 [Compound 252, 2-[3-(5-Amino-pyridin-2-yl)-[1,2,4]oxadiazol-5-yl]-4-methoxy-phenol]
- EC50 [2]: 9.2 µM

Structure (SMILES): COc1ccc(-c2nc(-c3ccc(N)cn3)no2)c(O)c1 [Compound 253]
- EC50 [2]: > 32 µM

Structure (SMILES): Nc1ccc(-c2noc(-c3cc(Br)ccc3O)n2)nc1 [Compound 254, 2-[3-(5-Amino-pyridin-2-yl)-[1,2,4]oxadiazol-5-yl]-4-bromo-phenol]
- EC50 [2]: 32 µM

Structure (SMILES): Cc1ccc(O)c(-c2nc(-c3ccc(N)cn3)no2)c1 [Compound 255, 2-[3-(5-Amino-pyridin-2-yl)-[1,2,4]oxadiazol-5-yl]-4-methyl-phenol]
- EC50 [2]: 24 µM

Structure (SMILES): Oc1ccc2ccccc2c1-c1nc(-c2ncccc2Br)no1 [Compound 256, 1-[3-(3-Bromo-pyridin-2-yl)-[1,2,4]oxadiazol-5-yl]-naphthalen-2-ol]
- EC50 [2]: 2.1 µM

Structure (SMILES): COc1cccc(-c2nc(-c3ncccc3Br)no2)c1O [Compound 257, 2-[3-(3-Bromo-pyridin-2-yl)-[1,2,4]oxadiazol-5-yl]-6-methoxy-phenol]
- EC50 [2]: > 32 µM

Structure (SMILES): COc1ccc(O)c(-c2nc(-c3ncccc3Br)no2)c1 [Compound 258, 2-[3-(3-Bromo-pyridin-2-yl)-[1,2,4]oxadiazol-5-yl]-4-methoxy-phenol]
- EC50 [2]: > 10 µM

Structure (SMILES): COc1ccc(-c2nc(-c3ncccc3Br)no2)c(O)c1 [Compound 259, 2-[3-(3-Bromo-pyridin-2-yl)-[1,2,4]oxadiazol-5-yl]-5-methoxy-phenol]
- EC50 [2]: 2.5 µM

Structure (SMILES): COc1cccc(-c2nc(-c3ccc(NC(C)=O)cn3)no2)c1O [Compound 260, N-{6-[5-(2-Hydroxy-3-methoxy-phenyl)-[1,2,4]oxadiazol-3-yl]-pyridin-3-yl}-acetamide]
- EC50 [2]: 44.3 µM

Structure (SMILES): COc1ccc(-c2nc(-c3ccc(NC(C)=O)cn3)no2)c(O)c1 [Compound 261, N-{6-[5-(2-Hydroxy-4-methoxy-phenyl)-[1,2,4]oxadiazol-3-yl]-pyridin-3-yl}-acetamide]
- EC50 [2]: 45.3 µM

Structure (SMILES): COc1ccc(O)c(-c2nc(-c3ccc(NC(C)=O)cn3)no2)c1 [Compound 262, N-{6-[5-(2-Hydroxy-5-methoxy-phenyl)-[1,2,4]oxadiazol-3-yl]-pyridin-3-yl}-acetamide]
- EC50 [2]: 19.2 µM

Structure (SMILES): CC(=O)Nc1ccc(-c2noc(-c3cc(Br)ccc3O)n2)nc1 [Compound 263, N-{6-[5-(5-Bromo-2-hydroxy-phenyl)-[1,2,4]oxadiazol-3-yl]-pyridin-3-yl}-acetamide]
- EC50 [2]: > 19 µM

Structure (SMILES): CC(=O)Nc1ccc(-c2noc(-c3cc(C)ccc3O)n2)nc1 [Compound 264, N-{6-[5-(2-Hydroxy-5-methyl-phenyl)-[1,2,4]oxadiazol-3-yl]-pyridin-3-yl}-acetamide]
- EC50 [2]: > 19 µM

Structure (SMILES): COc1ccc(-c2nc(-c3ccc(C(F)(F)F)cn3)no2)c(O)c1OC [Compound 265, 2,3-Dimethoxy-6-[3-(5-trifluoromethyl-pyridin-2-yl)-[1,2,4]oxadiazol-5-yl]-phenol]
- EC50 [2]: 28.5 µM

Structure (SMILES): Cc1cccnc1-c1noc(-c2cc(O)ccc2OCc2ccccc2)n1 [Compound 267, 4-Benzyloxy-3-[3-(3-methyl-pyridin-2-yl)-[1,2,4]oxadiazol-5-yl]-phenol]
- EC50 [2]: 15.9 µM

Structure (SMILES): CCOc1cccc(-c2nc(-c3ncccc3C)no2)c1O [Compound 268, 2-Ethoxy-6-[3-(3-methyl-pyridin-2-yl)-[1,2,4]oxadiazol-5-yl]-phenol]
- EC50 [2]: 28.7 µM

Structure (SMILES): CCOc1cccc(-c2nc(-c3ccc(C(F)(F)F)cn3)no2)c1O [Compound 269, 2-Ethoxy-6-[3-(5-trifluoromethyl-pyridin-2-yl)-[1,2,4]oxadiazol-5-yl]-phenol]
- EC50 [2]: 35.9 µM

Structure (SMILES): Cc1cccnc1-c1noc(-c2cc(N)ccc2O)n1 [Compound 270, 4-Amino-2-[3-(3-methyl-pyridin-2-yl)-[1,2,4]oxadiazol-5-yl]-phenol]
- EC50 [2]: 27.7 µM

Structure (SMILES): CCOc1ccc(O)c(-c2nc(-c3ncccc3C)no2)c1 [Compound 271, 4-Ethoxy-2-[3-(3-methyl-pyridin-2-yl)-[1,2,4]oxadiazol-5-yl]-phenol]
- EC50 [2]: 0.61 µM
